US20240217967A1, “INDOLINE DERIVATIVES AS DDRS INHIBITORS” (CHIESI FARMACEUTICI S.P.A., priority 2021, published 2024)

Columns and labels:
DDR1 [1] = molecular target: T1, DDR1 (Homo sapiens, UniProt Q08345); test: DDR1 LanthaScreen Europium Kinase Binding assay; settings: binding affinity; IC50 converted in Ki using Cheng-Prusoff; read-out: Ki DDR1
Procedure, shortened: (§1)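 Binding by TR-FRET tracer displacement: compounds incubated 1 h at room temperature with 5 nM DDR1 plus 20 nM Kinase Tracer 178, or 5 nM DDR2 plus 10 nM tracer, and 2 nM Eu anti-GST antibody in pH 7.5 HEPES/MgCl2/EGTA/BRIJ35 buffer. 665/615 nm ratio gave four-parameter IC50, converted to Ki via Cheng-Prusoff.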

DDR2 [2] = molecular target: T2, DDR2 (Homo sapiens, UniProt Q16832); test: DDR2 LanthaScreen Europium Kinase Binding assay; settings: binding affinity; IC50 converted in Ki using Cheng-Prusoff; read-out: Ki DDR2
T2 sequence (Q16832 22-855): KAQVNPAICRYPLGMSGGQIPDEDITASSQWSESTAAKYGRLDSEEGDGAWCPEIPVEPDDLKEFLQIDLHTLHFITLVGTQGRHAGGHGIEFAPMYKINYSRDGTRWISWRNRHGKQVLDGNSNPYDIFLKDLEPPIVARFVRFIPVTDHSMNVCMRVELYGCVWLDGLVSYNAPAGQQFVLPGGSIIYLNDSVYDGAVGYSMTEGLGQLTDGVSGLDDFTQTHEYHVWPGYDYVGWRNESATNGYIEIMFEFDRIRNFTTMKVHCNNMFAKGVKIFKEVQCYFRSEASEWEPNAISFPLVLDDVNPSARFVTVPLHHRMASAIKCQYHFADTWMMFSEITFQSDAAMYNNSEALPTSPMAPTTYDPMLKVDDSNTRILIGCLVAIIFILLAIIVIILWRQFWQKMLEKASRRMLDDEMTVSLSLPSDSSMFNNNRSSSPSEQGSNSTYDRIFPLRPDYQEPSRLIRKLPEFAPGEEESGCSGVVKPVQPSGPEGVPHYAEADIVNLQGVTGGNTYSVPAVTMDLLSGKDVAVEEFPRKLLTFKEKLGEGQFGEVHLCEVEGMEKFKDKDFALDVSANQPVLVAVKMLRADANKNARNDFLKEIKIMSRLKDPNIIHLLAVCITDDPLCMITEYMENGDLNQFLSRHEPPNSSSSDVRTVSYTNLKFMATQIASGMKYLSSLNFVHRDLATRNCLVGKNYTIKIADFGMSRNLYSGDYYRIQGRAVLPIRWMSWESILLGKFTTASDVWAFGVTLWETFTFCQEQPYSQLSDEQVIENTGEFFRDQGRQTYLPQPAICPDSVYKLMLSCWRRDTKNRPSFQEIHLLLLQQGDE
Procedure, shortened: as §1

DDR1 [3] = molecular target: T1, DDR1; test: DDR1 cell based assay (PathHunter U2OS DDR1, collagen II stimulation); settings: U2OS-DDR1 cells, bovine Type II Collagen stimulation
Procedure, shortened: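 U2OS-DDR1 PathHunter cells preincubated 30 min with compound, then stimulated overnight at 37 °C with 20 μg/ml bovine type II collagen. Luminescent complementation signal read after 1 h detection at room temperature; normalized to vehicle (0%) and collagen-only (100%) controls, IC50 from variable-slope sigmoidal fit.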

DDR2 [4] = molecular target: T2, DDR2; test: DDR2 cell based assay (phospho-ELISA in HEK293T-DDR2 recombinant cells, collagen II stimulation); settings: bovine Type II Collagen stimulation
Procedure: The inhibition of DDR2 phosphorylation by compounds was evaluated in HEK293T-DDR2 recombinant cells by phospho-ELISA assay. Briefly, HEK293T-DDR2 cells were seeded in poly-D-lysine-coated 24-well plates at a density of 250.000 cells/well and incubated for 1.5 hours at 37° C. and 5% CO2 in DMEM+10% FBS. After that, the medium was changed to serum-free DMEM and cells were incubated for 3 hours. Then. test compounds were added at different concentrations 30 minutes before stimulation with bovine Type II Collagen at 50 μg/ml for further 3 hours. For DDR2 phospho-ELISA assay (DuoSet IC Human Phospho-DDR2; R&D Systems), protein extracts were obtained by adding 60 μl/well of lysis buffer prepared according to the manufacturer's instructions. Protein concentration in the samples was determined by BCA assay and the levels of phospho-DDR2 were determined following R&D Systems indications. Raw data were normalized to maximal inhibition control (0% for normalization) and positive control (100% for normalization; cells treated with […] collagen II) and IC50 parameters were calculated in GraphPad Prism 8.0 software, using sigmoidal dose-response curve fitting with variable slope.

T1 sequence (Q08345 19-913): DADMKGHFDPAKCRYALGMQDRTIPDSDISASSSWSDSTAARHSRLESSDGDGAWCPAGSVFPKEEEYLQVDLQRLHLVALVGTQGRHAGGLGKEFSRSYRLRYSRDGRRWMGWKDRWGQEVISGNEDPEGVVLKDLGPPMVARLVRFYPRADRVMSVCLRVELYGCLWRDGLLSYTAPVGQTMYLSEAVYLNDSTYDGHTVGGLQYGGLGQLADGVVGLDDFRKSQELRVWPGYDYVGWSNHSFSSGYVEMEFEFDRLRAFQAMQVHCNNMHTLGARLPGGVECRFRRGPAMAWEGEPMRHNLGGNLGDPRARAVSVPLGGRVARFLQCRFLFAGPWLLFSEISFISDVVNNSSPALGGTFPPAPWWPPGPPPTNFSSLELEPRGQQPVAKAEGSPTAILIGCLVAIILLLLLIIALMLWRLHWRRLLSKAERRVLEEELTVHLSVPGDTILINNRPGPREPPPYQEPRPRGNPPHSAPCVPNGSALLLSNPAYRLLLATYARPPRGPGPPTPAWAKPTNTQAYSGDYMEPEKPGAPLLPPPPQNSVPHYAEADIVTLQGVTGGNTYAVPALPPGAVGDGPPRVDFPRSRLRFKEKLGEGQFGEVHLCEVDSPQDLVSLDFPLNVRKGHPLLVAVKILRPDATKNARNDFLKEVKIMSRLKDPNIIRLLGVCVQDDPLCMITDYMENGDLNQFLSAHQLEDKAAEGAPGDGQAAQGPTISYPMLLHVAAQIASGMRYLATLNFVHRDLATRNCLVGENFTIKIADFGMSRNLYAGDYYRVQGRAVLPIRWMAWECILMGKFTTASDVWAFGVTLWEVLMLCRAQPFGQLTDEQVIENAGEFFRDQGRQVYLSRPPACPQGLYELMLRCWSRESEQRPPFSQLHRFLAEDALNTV

Row | Ki (DDR1 [1]) | Ki (DDR2 [2]) | IC50 (DDR1 [3]) | IC50 (DDR2 [4]) | SMILES
1 | < 25 nM | 25 to 50 nM | < 25 nM | 25 to 50 nM | Cc1cn(-c2cc(NC(=O)c3ccc4c(c3)N(C(=O)c3cnc5[nH]ncc5c3)CC4C)cc(C(F)(F)F)c2)cn1 (centres unmarked) [Example 28, 3-methyl-N-(3-(4-methyl-1H-imidazol-1-yl)-5-(trifluoromethyl)phenyl)-1-(1H-pyrazolo[3,4-b]pyridine-5-carbonyl)indoline-6-carboxamide]
2 | < 25 nM | < 25 nM | < 25 nM | < 25 nM | O=C(Nc1cccc(C(F)(F)F)c1)c1ccc2c(c1)N(Cc1cnc3[nH]ncc3c1)CC2 [Example 35, 1-((1H-pyrazolo[3,4-b]pyridin-5-yl)methyl)-N-(3-(trifluoromethyl)phenyl)indoline-6-carboxamide]
3 | < 25 nM | < 25 nM | < 25 nM | 50 to 80 nM | CC(C)(c1cc(NC(=O)c2ccc3c(c2)N(Cc2cnc4[nH]ncc4c2)CC3)no1)C(F)(F)F [Example 36, 1-((1H-pyrazolo[3,4-b]pyridin-5-yl)methyl)-N-(5-(1,1,1-trifluoro-2-methylpropan-2-yl)isoxazol-3-yl)indoline-6-carboxamide]
4 | 25 to 50 nM | < 25 nM | < 25 nM | 25 to 50 nM | O=C(Nc1cc(F)cc(C(F)(F)F)c1)c1ccc2c(c1)N(Cc1cnc3[nH]ncc3c1)CC2 [Example 39, 1-((1H-pyrazolo[3,4-b]pyridin-5-yl)methyl)-N-(3-fluoro-5-(trifluoromethyl)phenyl)indoline-6-carboxamide]
5 | < 25 nM | < 25 nM | < 25 nM | < 25 nM | Cc1n[nH]c2ncc(CN3CCc4ccc(C(=O)Nc5ccc(CN(C)C)c(C(F)(F)F)c5)cc43)cc12 [Example 69, N-(4-((dimethylamino)methyl)-3-(trifluoromethyl)phenyl)-1-((3-methyl-1H-pyrazolo[3,4-b]pyridin-5-yl)methyl)indoline-6-carboxamide]
6 | < 25 nM | < 25 nM | < 25 nM | < 25 nM | CN1CCN(Cc2ccc(NC(=O)c3ccc4c(c3)N(Cc3cnc5[nH]ncc5c3)CC4)cc2C(F)(F)F)CC1 [Example 75]
7 | < 25 nM | < 25 nM | < 25 nM | < 25 nM | Cc1n[nH]c2ncc(CN3CCc4ccc(C(=O)Nc5cc(C(C)(C)C)no5)cc43)cc12 [Example 80, N-(3-(tert-butyl)isoxazol-5-yl)-1-((3-methyl-1H-pyrazolo[3,4-b]pyridin-5-yl)methyl)indoline-6-carboxamide]

The remaining lines, values behind:

Row | SMILES | Ki (DDR1 [1]) | Ki (DDR2 [2]) | IC50 (DDR1 [3]) | IC50 (DDR2 [4])
8 | Cc1cn(-c2cc(C(=O)Nc3ccc4c(c3)N(Cc3cnc5cnccn35)CC4)cc(C(F)(F)F)c2)cn1 [Example 22, N-(1-(imidazo[1,2-a]pyrazin-3-ylmethyl)indolin-6-yl)-3-(4-methyl-1H-imidazol-1-yl)-5-(trifluoromethyl)benzamide] | < 25 nM | < 25 nM | < 25 nM | 25 to 50 nM
9 | CC1CN(Cc2cnc3cnccn23)c2cc(C(=O)Nc3cccc(C(F)(F)F)c3)ccc21 (centres unmarked) [Example 31, 1-(imidazo[1,2-a]pyrazin-3-ylmethyl)-3-methyl-N-(3-(trifluoromethyl)phenyl)indoline-6-carboxamide] | < 25 nM | < 25 nM | < 25 nM | 50 to 80 nM
10 | O=C(Nc1cccc(OC(F)(F)F)c1)c1ccc2c(c1)N(Cc1cnc3[nH]ncc3c1)CC2 [Example 37, 1-((1H-pyrazolo[3,4-b]pyridin-5-yl)methyl)-N-(3-(trifluoromethoxy)phenyl)indoline-6-carboxamide] | < 25 nM | < 25 nM | < 25 nM | < 25 nM
11 | Cc1cn(-c2cc(C(=O)Nc3ccc4c(c3)N(Cc3cnc5[nH]ncc5c3)CC4)cc(C(F)(F)F)c2)cn1 [Example 38, N-(1-((1H-pyrazolo[3,4-b]pyridin-5-yl)methyl)indolin-6-yl)-3-(4-methyl-1H-imidazol-1-yl)-5-(trifluoromethyl)benzamide] | < 25 nM | < 25 nM | < 25 nM | 50 to 80 nM
12 | O=C(Nc1cc(F)cc(C(F)(F)F)c1)c1ccc2c(c1)N(Cc1cnc3ccccn13)CC2 [Example 59, N-(3-fluoro-5-(trifluoromethyl)phenyl)-1-(imidazo[1,2-a]pyridin-3-ylmethyl)indoline-6-carboxamide] | < 25 nM | < 25 nM | < 25 nM | 50 to 80 nM
13 | Cc1n[nH]c2ncc(CN3CCc4ccc(C(=O)Nc5ccc(CN6CCN(C)CC6)c(C(F)(F)F)c5)cc43)cc12 [Example 65, 1-((3-methyl-1H-pyrazolo[3,4-b]pyridin-5-yl)methyl)-N-(4-((4-methylpiperazin-1-yl)methyl)-3-(trifluoromethyl)phenyl)indoline-6-carboxamide] | < 25 nM | < 25 nM | < 25 nM | 50 to 80 nM
14 | CN1CCN(Cc2ccc(NC(=O)c3ccc4c(c3)N(Cc3cnc5[nH]nc(N6CCOCC6)c5c3)CC4)cc2C(F)(F)F)CC1 [Example 89, N-[4-[(4-methylpiperazin-1-yl)methyl]-3-(trifluoromethyl)phenyl]-1-[(3-morpholino-1H-pyrazolo[3,4-b]pyridin-5-yl)methyl]indoline-6-carboxamide] | < 25 nM | < 25 nM | < 25 nM | 50 to 80 nM
